Source: ChEMBL document CHEMBL4145636, “Izenamides A and B, Statine-Containing Depsipeptides, and an Analogue from a Marine Cyanobacterium” (J Nat Prod, 2018)
Active and inactive are the calls of the source. No cut-off for these calls is given here.

Key:
MCF7 = experiment: Growth inhibition of human MCF7 cells up to 10 uM after 72 hrs by MTT assay; assay type: functional, cell-based
Cathepsin D = Cathepsin D (Homo sapiens, UniProt P07339); experiment: Inhibition of human cathepsin D using GKPILFFRLK(DNP)-D-RNH2) labeled MCA as substrate preincubated for 10 mins followed by substrate addition measured after 1 to 2 hrs by fluorometric method
HL-60 = experiment: Growth inhibition of human HL60 cells up to 10 uM after 72 hrs by MTT assay; assay type: functional, cell-based
HeLa = experiment: Growth inhibition of human HeLa cells up to 10 uM after 72 hrs by MTT assay; assay type: functional, cell-based

Sequence of Cathepsin D (P07339 65-162 limits assumed): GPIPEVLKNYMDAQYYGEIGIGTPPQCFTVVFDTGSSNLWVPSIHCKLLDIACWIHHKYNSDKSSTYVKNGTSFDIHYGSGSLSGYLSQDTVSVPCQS
Sequence of Cathepsin D (P07339 169-412 limits assumed): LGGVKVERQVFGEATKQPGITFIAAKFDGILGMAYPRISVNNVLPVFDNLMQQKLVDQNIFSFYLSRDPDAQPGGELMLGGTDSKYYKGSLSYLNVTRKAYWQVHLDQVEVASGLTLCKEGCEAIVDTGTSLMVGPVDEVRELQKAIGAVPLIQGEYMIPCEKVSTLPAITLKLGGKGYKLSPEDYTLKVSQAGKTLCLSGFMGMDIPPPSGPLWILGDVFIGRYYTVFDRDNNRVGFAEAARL

CC[C@H](C)[C@H](NC(=O)C[C@H](O)[C@H](CC(C)C)NC(=O)[C@H](OC(=O)[C@@H](O)C(C)C)C(C)C)C(=O)N[C@@H](C)C(=O)N(C)[C@H](Cc1ccccc1)C(=O)N1CCC[C@H]1C(=O)OC
growth inhibition (GI) (MCF7): inactive | IC50 (Cathepsin D): 380 nM | growth inhibition (GI) (HL-60): inactive | growth inhibition (GI) (HeLa): inactive

CC[C@H](C)[C@H](NC(=O)[C@H](OC(=O)[C@@H](O)C(C)C)[C@@H](C)CC)C(=O)NCC(=O)N(C)[C@H](Cc1ccccc1)C(=O)N1CCC[C@H]1C(=O)OC
growth inhibition (GI) (MCF7): inactive | IC50 (Cathepsin D): > 10000 nM | growth inhibition (GI) (HL-60): inactive | growth inhibition (GI) (HeLa): inactive

CC[C@H](C)[C@H](NC(=O)C[C@H](O)[C@H](CC(C)C)NC(=O)[C@H](OC(=O)[C@@H](O)C(C)C)[C@@H](C)CC)C(=O)N[C@@H](C)C(=O)N(C)[C@H](Cc1ccccc1)C(=O)N1CCC[C@H]1C(=O)OC
growth inhibition (GI) (MCF7): inactive | IC50 (Cathepsin D): 270 nM | growth inhibition (GI) (HL-60): inactive | growth inhibition (GI) (HeLa): inactive
